Laboratory results from US20160297763A1, “Heteroaryl hydroxamic acid derivatives and their use in the treatment, amelioration or prevention of a viral disease” (priority 2011, published 2016).
Like-named read-outs stand apart in the source and are kept apart here.

What was measured:
[1] = test system: influenza A virus A/Aichi/2/68 (H3N2); assay: Cytopathic effect (CPE) assay H3N2; format: cell-based, influenza A virus (H3N2) on MDCK cells; settings: for inhibition at 10 µM: H3N2, activity conc 10 (μM per method); for inhibition at 2.5 µM: H3N2, activity conc 2.5 (μM per method); for inhibition at 20 µM: H3N2, activity conc 20 (μM per method)
Experimental: A possible measure of the […] antiviral activity of the compounds having the formula I or II is the CPE assay disclosed herein. […] In this connection, the reduction in the virus-mediated cytopathic effect (CPE) upon treatment with the compounds was calculated as follows: The cell viability of infected-treated and uninfected-treated cells was determined using an ATP-based cell viability assay (Promega). The response in relative luminescent units (RLU) of infected-untreated samples was subtracted from the response (RLU) of the infected-treated samples and then normalized to the viability of the corresponding uninfected sample resulting in % CPE reduction.
The influenza A virus (IAV) was obtained from American Tissue Culture Collection (A/Aichi/2/68 (H3N2); VR-547). Virus stocks were prepared by propagation of virus on Mardin-Darby canine kidney (MDCK; ATCC CCL-34) cells and infectious titres of virus stocks were determined by the 50% tissue culture infective dose (TCID50) analysis as described in Reed, L. J., and H. Muench. 1938, Am. J. Hyg. 27:493-497.
MDCK cells were seeded in 96-well plates at 2×10^4 cells/well using DMEM/Ham's F-12 (1:1) medium containing 10% foetal bovine serum (FBS), 2 mM L-glutamine and 1 antibiotics (all from PAA). Until infection the cells were incubated for 5 hrs at 37° C., 5.0 CO2 to form a ˜80% confluent monolayer on the bottom of the well. Each test compound was dissolved in DMSO and generally tested at 25 μM and 250 μM. In those cases where the compounds were not soluble at that concentration they were tested at the highest soluble concentration. The compounds were diluted in infection medium (DMEM/Ham's F-12 (1:1) containing 5 μg/ml trypsin, and 1% antibiotics) for a final plate well DMSO concentration of 1%. The virus stock was diluted in infection medium (DMEM/Ham's F-12 (1:1) containing 5 μg/ml Trypsin, 1% DMSO, and 1% antibiotics) to a theoretical multiplicity of infection (MOI) of 0.05.
After removal of the culture medium and one washing step with PBS, virus and compound were added together to the cells. In the wells used for cytotoxicity determination (i.e. in the absence of viral infection), no virus suspension was added. Instead, infection medium was added. Each treatment was conducted in two replicates. After incubation at 37° C., 5% CO2 for 48 hrs, each well was observed microscopically for apparent cytotoxicity, precipitate formation, or other notable abnormalities. Then, cell viability was determined using CellTiter-Glo luminescent cell viability assay (Promega). The supernatant was removed carefully and 65 μl of the reconstituted reagent were added to each well and incubated with gentle shaking for 15 min at room temperature. Then, 60 μl of the solution was transferred to an opaque plate and luminescence (RLU) was measured using Synergy HT plate reader (Biotek).
Relative cell viability values of uninfected-treated versus uninfected-untreated cells were used to evaluate cytotoxicity of the compounds. Substances with a relative viability below 80% at the tested concentration were regarded as cytotoxic and retested at lower concentrations.
Reduction in the virus-mediated cytopathic effect (CPE) upon treatment with the compounds was calculated as follows: The response (RLU) of infected-untreated samples was subtracted from the response (RLU) of the infected-treated samples and then normalized to the viability of the corresponding uninfected sample resulting in % CPE reduction.

[2] = biological target: PB2 cap binding domain (CBD) (Influenza A virus, UniProt Q9Q0V1); assay: biochemical; set-up: species or system avian H5N1 influenza virus
[3] = Influenza A virus, H3N2, activity conc 50 (μM per method), read-out: CPE H3N2 reduction (%)
[4] = Influenza A virus, H3N2, read-out: CPE H3N2 reduction (%), activity conc 50 (μM per method)
[5] = Influenza A virus, read-out: CPE H3N2 reduction (%)
[6] = Influenza A virus, H3N2, read-out: CPE H3N2 IC50
[7] = Influenza A virus, H3N2, activity conc 2 (μM per method), read-out: CPE H3N2 reduction (%)
[8] = Influenza A virus, H3N2, activity conc 5 (μM per method), read-out: CPE H3N2 reduction (%)
[9] = Influenza A virus, H3N2, activity conc 25 (μM per method), read-out: CPE H3N2 reduction (%)

Chain of PB2 cap binding domain (CBD) (Q9Q0V1 318-483 limits assumed): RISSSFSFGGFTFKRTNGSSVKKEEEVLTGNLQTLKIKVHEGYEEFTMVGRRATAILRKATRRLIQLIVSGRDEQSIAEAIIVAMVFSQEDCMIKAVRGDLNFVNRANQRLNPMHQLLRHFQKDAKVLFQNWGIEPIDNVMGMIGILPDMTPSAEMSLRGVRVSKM

Structure (SMILES) | Kd [2] | IC50 [1, 6] | other results
Nc1nc2sc(-c3ccccc3)cc2c(=O)[nH]1 [SAV-7549] | 8.8 µM |  | inhibition at 50 µM [1, 3]: -2.4%
Cc1c(-c2cc(C(F)(F)F)cc(C(F)(F)F)c2)sc2nc(N)[nH]c(=O)c12 [SAV-7600] | 3.8 µM |  | inhibition at 2 µM ([1]; Influenza A virus, H3N2, read-out: CPE H3N2 reduction (%), activity conc 2 (μM per method)): 5.8%
Cc1c(-c2ccc(Cl)nc2)sc2nc(N)[nH]c(=O)c12 [SAV-7632] | 0.75 µM |  | inhibition at 50 µM [1, 4]: 53%
Cc1c(-c2cnccn2)sc2nc(N)[nH]c(=O)c12 [SAV-7608] | 5.7 µM |  | inhibition at 10 µM [1, 5]: 3.8%
Cc1c(-c2ccnc(C(F)(F)F)c2)sc2nc(N)[nH]c(=O)c12 [SAV-7625] | 12 µM |  | inhibition at 2.5 µM [1, 5]: -4%
Cc1c(C2=CCNCC2)sc2nc(N)[nH]c(=O)c12 [SAV-7614] | 190 µM |  | inhibition at 50 µM [1, 3]: 10.6%
Cc1c(-c2cccnc2)sc2nc(N)[nH]c(=O)c12 [SAV-7589] | 10 µM | 27 µM | inhibition at 50 µM [1, 3]: 63.1%
Cc1c(-c2ccccc2)sc2nc(NCCCO)[nH]c(=O)c12 [SAV-7582] | 4.2 µM |  | inhibition at 50 µM [1, 3]: 53.1%
Cc1c(-c2ccc(Cl)c(F)c2)sc2nc(N)[nH]c(=O)c12 [SAV-7624] | 0.2 µM | 64 µM | 
Cc1c(-c2cccc(Cl)c2)sc2nc(N)[nH]c(=O)c12 [SAV-7580] | 8.9 µM |  | IC50 ([1]; Influenza A virus, H3N2, read-out: CPE H3N2 IC50 [μM]): 11 µM; CPE H3N2 reduction (%) ([1]; activity conc 2 (μM per method)): 89.8%
Cc1c(-c2ccc(F)cc2)sc2nc(N)[nH]c(=O)c12 [SAV-7601] | 1.1 µM |  | inhibition at 50 µM [1, 3]: 69.2%
Cc1c(-c2ccccc2F)sc2nc(N)[nH]c(=O)c12 [SAV-7598] | 3.7 µM |  | inhibition at 2 µM [1, 7]: 11.4%
Cc1c(-c2cccc(CN(C)C)c2)sc2nc(N)[nH]c(=O)c12 [SAV-7629] | 61 µM | 35 µM | inhibition at 50 µM [1, 3]: 38.3%
Cc1c(-c2ccc(Cl)cc2F)sc2nc(N)[nH]c(=O)c12 [SAV-7618] | 0.65 µM | 43 µM | inhibition at 50 µM [1, 3]: 77.4%
Cc1c(-c2cc(C#N)ccc2Cl)sc2nc(N)[nH]c(=O)c12 [SAV-7617] | 2 µM |  | inhibition at 2 µM [1, 7]: 5.1%
Cc1c(-c2ccnc(Cl)c2F)sc2nc(N)[nH]c(=O)c12 [SAV-7633] | 1.2 µM | 39 µM | inhibition at 50 µM [1, 3]: 63.1%
COc1ccc(-c2sc3nc(N)[nH]c(=O)c3c2C)cc1 [SAV-7575] | 4 µM |  | inhibition at 20 µM [1, 5]: 9.02%
Cc1c(-c2cccc(C#N)c2)sc2nc(N)[nH]c(=O)c12 [SAV-7594] | 2 µM | 14 µM | inhibition at 5 µM [1, 8]: 14.5%
Cc1c(-c2ccc(Cl)c(O)c2)sc2nc(N)[nH]c(=O)c12 [SAV-7622] | 2.4 µM |  | inhibition at 2 µM [1, 7]: 6.2%
Cc1c(-c2cc(CN(C)C)ccc2F)sc2nc(N)[nH]c(=O)c12 [SAV-7630] | 57 µM |  | inhibition at 50 µM [1, 4]: 23.2%
Cc1c(-c2ccc(Cl)c(C(=O)N(C)C)c2)sc2nc(N)[nH]c(=O)c12 [SAV-7626] | 6.4 µM |  | inhibition at 25 µM [1, 9]: -4.6%

Structure (SMILES) | Kd [2] | IC50 [1, 6] | other results
Cc1c(-c2ccc(F)c(C#N)c2F)sc2nc(N)[nH]c(=O)c12 [SAV-7628] | 7.3 µM | 43 µM | inhibition at 50 µM [1, 3]: 84.3%
Cc1c(Cc2ccccc2)sc2nc(N)[nH]c(=O)c12 [SAV-7521] | 6 µM |  | inhibition at 25 µM [1, 9]: 33.6%
Cc1c(-c2ccc(Cl)c(C#N)c2)sc2nc(N)[nH]c(=O)c12 [SAV-7602] | 1.7 µM |  | inhibition at 20 µM [1, 5]: 67.9%
Cc1c(-c2cccc(C(F)(F)F)c2)sc2nc(N)[nH]c(=O)c12 [SAV-7581] | 1.4 µM | 17 µM | inhibition at 50 µM [1, 3]: 87.8%
Nc1nc2sc(-c3ccccc3)c(Br)c2c(=O)[nH]1 [SAV-7631] | 0.66 µM |  | inhibition at 5 µM ([1]; Influenza A virus, H3N2, read-out: CPE H3N2 reduction (%), activity conc 5 (μM per method)): 4%
Cc1ccc(-c2sc3nc(N)[nH]c(=O)c3c2C)cc1 [SAV-7585] | 2 µM | 3.5 µM | inhibition at 2.5 µM [1, 5]: 28.9%
Cc1ccccc1-c1sc2nc(N)[nH]c(=O)c2c1C [SAV-7596] | 11 µM |  | inhibition at 5 µM [1, 8]: 13.6%
Cc1c(-c2ccccc2)sc2nc(NCCO)[nH]c(=O)c12 [SAV-7577] | 6.8 µM |  | inhibition at 20 µM [1, 5]: 2.85%
Cc1c(-c2cccc(Cl)c2F)sc2nc(N)[nH]c(=O)c12 [SAV-7616] | 3.1 µM | 34 µM | inhibition at 10 µM [1, 5]: 68.7%
CC(c1ccccc1)c1cc2c(=O)[nH]c(N)nc2s1 (stereo not drawn) [SAV-7604] | 6.4 µM |  | inhibition at 20 µM [1, 5]: -4.7%
Cc1c(-c2ccncc2)sc2nc(N)[nH]c(=O)c12 [SAV-7586] | 12 µM | 5.3 µM | inhibition at 15 µM ([1]; Influenza A virus, H3N2, activity conc 15 (μM per method), read-out: CPE H3N2 reduction (%)): 81.2%
Nc1nc2sc(-c3ccccc3)c(Cl)c2c(=O)[nH]1 [SAV-7639] | 1.8 µM |  | inhibition at 50 µM [1, 4]: 59.9%
Cc1c(-c2ccc(F)c(C(F)(F)F)c2)sc2nc(N)[nH]c(=O)c12 [SAV-7613] | 1.5 µM |  | inhibition at 50 µM [1, 3]: 2.5%
Cc1cccc(-c2sc3nc(N)[nH]c(=O)c3c2C)c1 [SAV-7607] | 5.4 µM |  | inhibition at 2 µM [1, 7]: -0.4%
Cc1c(-c2cccc(C#N)c2F)sc2nc(N)[nH]c(=O)c12 [SAV-7627] | 4.2 µM | 10 µM | inhibition at 50 µM [1, 3]: 71.2%
COc1cc(-c2sc3nc(N)[nH]c(=O)c3c2C)ccc1Cl [SAV-7619] | 1.1 µM |  | inhibition at 2 µM [1, 7]: 3.4%
Nc1nc2sc(Cc3ccccc3)cc2c(=O)[nH]1 [SAV-7517] | 13 µM |  | inhibition at 10 µM [1, 5]: -2.64%
Cc1c(-c2cc(C#N)ccc2F)sc2nc(N)[nH]c(=O)c12 [SAV-7615] | 3 µM | 12 µM | inhibition at 20 µM [1, 5]: 59.2%
Cc1c(-c2ccc(F)nc2F)sc2nc(N)[nH]c(=O)c12 [SAV-7621] | 70 µM |  | inhibition at 25 µM ([1]; Influenza A virus, H3N2, read-out: CPE H3N2 reduction (%), activity conc 25 (μM per method)): 14.3%
Cc1c(-c2c(F)ccc(Cl)c2F)sc2nc(N)[nH]c(=O)c12 [SAV-7637] | 1.1 µM | 18 µM | inhibition at 5 µM [1, 8]: 1.5%
